Measured values: patent publication US12127557B2
Where two headings read alike, the source gives them in different places.

Experiments:
[1] = test system: Pythium ultimum; assay type: cell-based; details: no enzyme, 2 days
[2] = test system: Fusarium graminearum; assay type: cell-based; details: no enzyme, 5 days

mancozeb
Reduction in P. ultimum growth (−) enzyme ([1]; mancozeb 0.5 mg/l): 2% f | Reduction in P. ultimum growth (−) enzyme ([1]; mancozeb 2 mg/l): 10% e | Reduction in P. ultimum growth (−) enzyme ([1]; mancozeb 5 mg/l): 16% e | Reduction in P. ultimum growth (−) enzyme ([1]; mancozeb 10 mg/l): 23% d | Reduction in F. graminearum growth (−) enzyme ([2]; mancozeb 0.5 mg/l): 6% cd | Reduction in F. graminearum growth (−) enzyme ([2]; mancozeb 2 mg/l): 1% d | Reduction in F. graminearum growth (−) enzyme ([2]; mancozeb 5 mg/l): 17% cd | Reduction in F. graminearum growth (−) enzyme ([2]; mancozeb 10 mg/l): 26% bcd
